Remaining activity and residual activity data for five molecules are collected here from article PMC6458995, “MAP4K4 Inhibition Promotes Survival of Human Stem Cell-Derived Cardiomyocytes and Reduces Infarct Size In Vivo” (Cell Stem Cell, 2019).

Common to all, as to assay: Dundee kinase panel
Common to all, as to type: biochemical
What all share (conditions): for remaining activity at 1 µM: read-out: residual activity

Assay [1] concerns the target T1, DYRK2 (Homo sapiens, UniProt Q92630).
T1 construct: lines 1-140) and Reaction Biology
T1 sequence (Q92630 1-601): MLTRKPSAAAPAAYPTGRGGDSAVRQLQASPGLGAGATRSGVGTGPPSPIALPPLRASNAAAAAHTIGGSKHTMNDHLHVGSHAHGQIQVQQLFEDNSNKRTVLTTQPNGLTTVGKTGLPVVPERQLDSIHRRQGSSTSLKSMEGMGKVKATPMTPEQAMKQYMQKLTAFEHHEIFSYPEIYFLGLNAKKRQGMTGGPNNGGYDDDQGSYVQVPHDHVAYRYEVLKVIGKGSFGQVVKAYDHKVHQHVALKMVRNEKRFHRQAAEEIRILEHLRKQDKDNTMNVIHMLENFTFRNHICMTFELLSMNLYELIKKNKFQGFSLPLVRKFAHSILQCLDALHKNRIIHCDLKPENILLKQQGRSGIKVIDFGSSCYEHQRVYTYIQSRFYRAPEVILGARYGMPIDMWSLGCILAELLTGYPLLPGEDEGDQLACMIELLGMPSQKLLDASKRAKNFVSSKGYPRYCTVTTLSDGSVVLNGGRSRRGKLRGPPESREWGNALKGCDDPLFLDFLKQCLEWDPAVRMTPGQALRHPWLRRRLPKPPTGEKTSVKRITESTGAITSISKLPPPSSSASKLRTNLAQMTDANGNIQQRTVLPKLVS
As for the experimental part:
(§1) Compounds were screened at 1 μM. For key hits, pIC50 values were then determined by HTRF as above. […] Stability in mouse and human liver microsomes was determined by Cyprotex.

The target in assay [2] is T2, JNK2 (Homo sapiens, UniProt P45984).
T2 construct: lines 1-140) and Reaction Biology
T2 sequence (P45984 whole entry): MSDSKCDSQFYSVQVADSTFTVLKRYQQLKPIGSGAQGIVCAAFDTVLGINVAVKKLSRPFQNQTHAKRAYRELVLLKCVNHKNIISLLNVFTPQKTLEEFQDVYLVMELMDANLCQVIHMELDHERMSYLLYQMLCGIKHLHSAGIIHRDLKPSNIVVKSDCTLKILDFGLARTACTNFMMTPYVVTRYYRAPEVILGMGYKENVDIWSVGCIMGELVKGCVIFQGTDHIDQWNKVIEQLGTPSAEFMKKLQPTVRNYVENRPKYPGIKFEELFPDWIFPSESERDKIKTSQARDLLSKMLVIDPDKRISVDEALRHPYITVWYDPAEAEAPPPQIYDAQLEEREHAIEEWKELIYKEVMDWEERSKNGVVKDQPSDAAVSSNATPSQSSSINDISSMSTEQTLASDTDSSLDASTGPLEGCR
As for the experimental part:
as §1

The target of assay [3] is T3, EPH-B2 (Homo sapiens, UniProt P29323).
T3 construct: lines 1-140) and Reaction Biology
T3 sequence (P29323 19-1055): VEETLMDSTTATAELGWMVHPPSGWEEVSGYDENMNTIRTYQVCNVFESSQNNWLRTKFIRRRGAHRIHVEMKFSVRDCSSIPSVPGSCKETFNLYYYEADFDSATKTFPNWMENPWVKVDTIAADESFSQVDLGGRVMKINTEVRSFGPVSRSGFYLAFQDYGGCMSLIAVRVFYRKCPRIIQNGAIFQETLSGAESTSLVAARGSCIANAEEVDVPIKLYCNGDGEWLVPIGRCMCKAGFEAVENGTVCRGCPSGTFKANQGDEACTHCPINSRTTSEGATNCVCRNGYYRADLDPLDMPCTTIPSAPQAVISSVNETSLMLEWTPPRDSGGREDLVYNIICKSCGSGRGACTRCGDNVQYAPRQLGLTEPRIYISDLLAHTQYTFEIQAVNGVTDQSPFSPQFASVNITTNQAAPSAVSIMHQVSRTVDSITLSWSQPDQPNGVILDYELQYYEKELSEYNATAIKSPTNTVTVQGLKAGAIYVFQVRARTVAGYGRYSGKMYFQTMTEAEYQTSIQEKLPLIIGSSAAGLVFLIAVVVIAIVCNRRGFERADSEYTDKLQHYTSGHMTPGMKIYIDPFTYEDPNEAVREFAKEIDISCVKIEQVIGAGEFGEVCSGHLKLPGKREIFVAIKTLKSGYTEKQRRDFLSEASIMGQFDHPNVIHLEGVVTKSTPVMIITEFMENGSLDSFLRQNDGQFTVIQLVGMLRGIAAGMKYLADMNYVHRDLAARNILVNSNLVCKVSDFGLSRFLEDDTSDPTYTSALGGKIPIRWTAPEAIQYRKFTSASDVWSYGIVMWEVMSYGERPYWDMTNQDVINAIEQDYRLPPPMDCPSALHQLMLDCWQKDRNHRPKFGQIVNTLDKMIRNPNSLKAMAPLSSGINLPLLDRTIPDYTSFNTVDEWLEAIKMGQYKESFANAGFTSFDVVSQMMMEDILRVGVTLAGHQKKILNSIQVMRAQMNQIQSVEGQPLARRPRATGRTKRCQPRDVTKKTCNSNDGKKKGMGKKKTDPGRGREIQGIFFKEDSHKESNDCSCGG
As for the experimental part: as §1

Assay [4] concerns the target T4, ERK2 (Homo sapiens, UniProt P28482).
T4 construct: lines 1-140) and Reaction Biology
The method, then: as §1

Assay [5] concerns the target T5, EIF2AK3 (Homo sapiens, UniProt Q9NZJ5).
T5 construct: lines 1-140) and Reaction Biology
T5 sequence (Q9NZJ5 30-1116): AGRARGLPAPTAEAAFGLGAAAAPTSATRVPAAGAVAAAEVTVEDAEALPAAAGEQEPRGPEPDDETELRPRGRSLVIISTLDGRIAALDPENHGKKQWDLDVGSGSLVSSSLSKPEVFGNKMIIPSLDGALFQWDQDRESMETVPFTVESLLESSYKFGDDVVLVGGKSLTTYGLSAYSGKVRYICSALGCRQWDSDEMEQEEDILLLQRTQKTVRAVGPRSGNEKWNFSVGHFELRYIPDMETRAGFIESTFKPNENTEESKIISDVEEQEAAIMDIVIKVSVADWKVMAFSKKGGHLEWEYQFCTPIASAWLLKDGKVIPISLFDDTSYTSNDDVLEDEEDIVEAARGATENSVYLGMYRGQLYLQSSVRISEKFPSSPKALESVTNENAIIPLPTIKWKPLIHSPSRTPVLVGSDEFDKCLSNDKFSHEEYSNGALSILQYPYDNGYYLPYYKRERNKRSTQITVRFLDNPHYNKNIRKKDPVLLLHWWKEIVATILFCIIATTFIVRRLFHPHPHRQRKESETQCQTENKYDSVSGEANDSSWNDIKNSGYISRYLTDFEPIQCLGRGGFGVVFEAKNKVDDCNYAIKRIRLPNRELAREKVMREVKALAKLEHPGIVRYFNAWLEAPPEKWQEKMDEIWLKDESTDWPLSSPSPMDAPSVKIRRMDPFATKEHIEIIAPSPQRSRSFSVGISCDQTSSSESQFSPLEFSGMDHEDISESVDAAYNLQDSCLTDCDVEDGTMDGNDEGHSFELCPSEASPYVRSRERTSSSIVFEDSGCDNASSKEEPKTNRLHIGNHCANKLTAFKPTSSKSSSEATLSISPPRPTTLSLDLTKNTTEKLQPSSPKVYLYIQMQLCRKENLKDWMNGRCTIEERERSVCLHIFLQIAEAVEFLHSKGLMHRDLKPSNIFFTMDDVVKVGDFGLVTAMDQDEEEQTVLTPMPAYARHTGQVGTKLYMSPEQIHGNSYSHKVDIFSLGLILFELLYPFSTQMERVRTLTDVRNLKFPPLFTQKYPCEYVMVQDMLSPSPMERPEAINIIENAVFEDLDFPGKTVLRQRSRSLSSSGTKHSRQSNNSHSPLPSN
As for the experimental part: as §1

For assay [6], the target named is T6, MNK1 (Homo sapiens, UniProt Q9BUB5).
T6 construct: lines 1-140) and Reaction Biology
T6 sequence (Q9BUB5 whole entry): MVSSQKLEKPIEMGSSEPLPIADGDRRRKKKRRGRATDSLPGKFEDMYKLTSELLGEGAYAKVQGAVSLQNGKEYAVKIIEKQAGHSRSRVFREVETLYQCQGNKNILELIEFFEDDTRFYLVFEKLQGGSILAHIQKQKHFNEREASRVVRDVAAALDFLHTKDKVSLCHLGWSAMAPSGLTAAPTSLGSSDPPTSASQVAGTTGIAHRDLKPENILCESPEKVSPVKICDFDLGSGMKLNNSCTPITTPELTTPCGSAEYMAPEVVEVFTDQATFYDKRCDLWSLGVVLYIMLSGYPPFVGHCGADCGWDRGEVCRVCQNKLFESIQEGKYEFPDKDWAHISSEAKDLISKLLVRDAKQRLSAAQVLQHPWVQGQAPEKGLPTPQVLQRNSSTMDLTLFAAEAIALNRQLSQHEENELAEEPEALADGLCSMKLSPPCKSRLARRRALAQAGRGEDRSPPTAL
The method, then:
as §1

Assay [7] deals with T7, RIPK2 (Homo sapiens, UniProt O43353).
T7 construct: lines 1-140) and Reaction Biology
T7 sequence (O43353 whole entry): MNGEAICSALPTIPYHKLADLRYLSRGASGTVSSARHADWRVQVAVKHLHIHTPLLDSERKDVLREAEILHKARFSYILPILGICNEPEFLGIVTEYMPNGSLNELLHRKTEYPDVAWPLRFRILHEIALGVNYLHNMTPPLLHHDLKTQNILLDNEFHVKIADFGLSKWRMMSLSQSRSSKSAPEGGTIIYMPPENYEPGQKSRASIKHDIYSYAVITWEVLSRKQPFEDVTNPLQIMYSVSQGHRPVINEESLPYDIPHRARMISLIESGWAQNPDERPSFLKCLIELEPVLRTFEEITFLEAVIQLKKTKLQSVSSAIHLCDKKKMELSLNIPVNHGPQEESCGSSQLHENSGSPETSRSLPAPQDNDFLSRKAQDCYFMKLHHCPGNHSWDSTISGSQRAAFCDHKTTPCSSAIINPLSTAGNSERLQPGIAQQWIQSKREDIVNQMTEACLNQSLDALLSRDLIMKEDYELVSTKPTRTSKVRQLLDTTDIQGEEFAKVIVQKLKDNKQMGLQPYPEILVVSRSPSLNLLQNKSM
The method, then: as §1

T4 sequence (P28482 whole entry): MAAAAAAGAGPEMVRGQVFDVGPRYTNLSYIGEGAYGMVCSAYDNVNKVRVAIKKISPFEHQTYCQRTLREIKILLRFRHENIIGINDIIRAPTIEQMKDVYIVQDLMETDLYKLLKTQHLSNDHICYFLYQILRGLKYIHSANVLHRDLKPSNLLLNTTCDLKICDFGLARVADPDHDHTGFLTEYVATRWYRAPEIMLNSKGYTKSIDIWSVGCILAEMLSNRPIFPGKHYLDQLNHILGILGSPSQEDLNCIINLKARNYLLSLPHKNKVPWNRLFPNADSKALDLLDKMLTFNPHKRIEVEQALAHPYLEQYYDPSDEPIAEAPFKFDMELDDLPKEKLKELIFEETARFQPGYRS

On to `COCCOc1ccc(-c2cn(-c3ccccc3)c3nc[nH]c(=O)c23)cc1` [DMX-5804, 5-[4-(2-methoxy-ethoxy)-phenyl]-7-phenyl-3,7-dihydro-pyrrolo[2,3-d]pyrimidin-4-one], for which the remaining activity at 1 µM in assay [1] was 115%; in assay [2] it was 103%; in assay [3] it was 102%; in assay [4] it was 76%; in assay [5] it was 110%; in assay [6] it was 90%. For the same molecule, in assay [7], the remaining activity at 1 µM is 89%.

In the case of `Oc1ncnc2c1c(-c1ccccc1)cn2-c1ccccc1` [F1386-0303, 5,7-diphenyl-7H-pyrrolo[2,3-d]pyrimidin-4-ol], the remaining activity at 1 µM in assay [1] is 93%; in assay [2], 94%; in assay [3] it was 78%; in assay [4] it was 99%; in assay [5], 99%; in assay [6], 102%. The remaining activity at 1 µM in assay [7] was found to be 105%.

As a reminder, the residual activity is the signal under treatment as a percentage of the control signal. For the molecule `Nc1ncc(C(=O)NC2CN(C(=O)C3CC3)C2)c2ccc(-c3cccc(F)c3)nc12` [GNE-495], the residual activity came out at 55% in assay [1] (1 μM); 100% in assay [2] (1 μM); 102% in assay [3] (1 μM); 104% in assay [4] (1 μM); 100% in assay [5] (1 μM); 53% in assay [6] (1 μM). Further, the residual activity in assay [7] (1 μM) is reported as 11%.

With `O=C1Nc2ccc(I)cc2/C1=C/c1cc(Br)c(O)c(Br)c1` [GW5074], the remaining activity at 1 µM is 13% in assay [1]; 80% in assay [2]; 94% in assay [3]; 106% in assay [4]; 85% in assay [5]; 82% in assay [6]. Further, the remaining activity at 1 µM in assay [7] is 51%.

As to `O=C1Cc2c([nH]c3ccc(Br)cc23)-c2ccccc2N1` [Kenpaullone], the remaining activity at 1 µM in assay [1] was 91%; in assay [2], 94%; in assay [3] it was 99%; in assay [4], 124%; in assay [5], 94%; in assay [6], 91%. In addition, in assay [7], the remaining activity at 1 µM amounted to 60%.
